Our source for the AC50 values is PubChem BioAssay AID463204 (Broad Institute, 2010).

Molecules are shown by their SMILES. Calls of active or inactive are those of the source.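 How the source made its calls: active means AC50 no more than ten times the top concentration tested, that is within one log above it; inconclusive means flat curve fit with activity between 30% and 70%, or invalid poor fit; inactive means AC50 beyond ten times the top tested dose.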

For this assay, the system named is S. cerevisiae Mot1-301 ts growth rescue, BacTiter-Glo ATP luminescence. The assay is described as follows: growth rescue of Mot1-301 ts yeast, confirmation, SUMOylation pathway inhibitor project, whole organism, S. cerevisiae, Mot1-301 ts mutant, luminescence, dose retest (AID 463204).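 Further: growth at restrictive 38.5 degrees C of Mot1-301 OY566 strain; actives raise luminescence by restoring growth of the ts mutant at high temperature.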
Regarding `CC(=O)c1ccc(N=C2SCCCN2C(=O)C2CCCC2)cc1`, the AC50 was > 42 µM (inactive).

Take `CC1CC(C)(C)N2C(=O)C3(Nc4ccccc4S3)c3cccc1c32` (centres undefined): the half-maximal activity concentration (AC50) was 3.15 µM.

Take `NNC(=O)c1oc2nc(-c3ccccc3)cc(-c3ccccc3)c2c1N`: the AC50 was > 42 µM (inactive).

With `CC(C)(C)C(=O)NC1CCN(CC(=O)Nc2ccc3c(c2)OCO3)CC1`, the AC50 was > 42 µM (inactive).

Take `CCN(CC)CCCN1C(=O)C(=O)/C(=C(/O)c2ccccc2)C1c1cc(OC)ccc1OC` (centres undefined): the AC50 was > 42 µM (inactive).

With `CC(C)(C)C(=O)C(Cl)C(=O)Nc1ccccc1` (centres undefined), the AC50 was 3.35 µM.

Take `COc1cc(C)c(Cl)c(C)c1S(=O)(=O)NCc1ccc2c(c1)OCO2`: the AC50 is > 42 µM (inactive).

For the compound `COc1ccc2c(CC(=O)Nc3ccc(OC)c(NS(=O)(=O)c4ccc(F)cc4)c3)coc2c1`, the AC50 is > 42 µM (inactive).

As for `O=C(c1cccs1)N(C(=O)c1cccs1)c1ccc(Br)cn1`, the half-maximal activity concentration (AC50) is 1.35 µM.

In the case of `CCCCOc1ccc(C(=O)Nc2ccc(N3CCN(C)CC3)cc2)cc1`, the AC50 was > 42 µM (inactive).

On to `O=S(=O)(NCc1ccccc1)c1ccc(S(=O)(=O)N(Cc2ccccn2)Cc2ccco2)cc1`, for which the AC50 was > 42 µM (inactive).

Consider `Cc1cccc(N=Nc2ccc(N(C)C)cc2)c1`, for which the AC50 is > 42 µM (inactive).

For the compound `CC(C)CCn1c(C(C)O)nc2ccccc21` (centres undefined), the AC50 is > 42 µM (inactive).

In the case of `Cc1cc(C)n2c(SCC(C)C)nnc2n1`, the AC50 was > 42 µM (inactive).

Regarding `CN(C(=O)c1ccncc1)c1nnc(-c2cnccn2)s1`, the AC50 is > 42 µM (inactive).

With `CC1C(=O)CC(c2ccccc2)NC1c1ccccc1` (centres undefined), the AC50 was > 42 µM (inactive).

Regarding `Cc1cc(C)cc(C(=O)NC(CC(N)=O)c2ccc(NCCN3CCOCC3)c([N+](=O)[O-])c2)c1` (centres undefined), the AC50 was > 42 µM (inactive).

With `COc1ccc(-n2c(SCC(=O)NCC3CCCO3)nc3c(c2=O)SCC3)cc1OC` (centres undefined), the AC50 was > 42 µM (inactive).

Turning to `COc1ccc(Cl)cc1NC(=O)C1CCCN(c2cc(C)nc3ncnn23)C1` (centres undefined), the AC50 was > 42 µM (inactive).

As for `CC1=C(C(=O)OCc2ccccc2)C(c2cccc(F)c2)NC(=O)N1` (centres undefined), the AC50 is > 42 µM (inactive).

In the case of `COc1ccc(S(=O)(=O)N2CCOC2CNC(=O)C(=O)NCc2ccncc2)cc1C` (centres undefined), the AC50 was > 42 µM (inactive).

On to `Oc1c(Br)cc(Br)cc1/C=N/N1CCN(Cc2ccccc2)CC1`, for which the AC50 is 1.78 µM.

For `O=C(NNC(=O)c1ccccc1O)c1ccco1`, the AC50 was > 42 µM (inactive).

With `Cc1ccc(C)n1-c1ccc(N(C)C)cc1`, the AC50 is > 42 µM (inactive).

Turning to `COCc1nnc(NC(=O)CC(C)C)s1`, the AC50 is > 42 µM (inactive).

For the compound `CCOC(=O)c1cc2sc(C)cc2n1CC(=O)Nc1ccc2c(c1)OCCO2`, the AC50 was > 42 µM (inactive).

Turning to `CC(=O)N1CCC2(CC1)CC(=O)c1cc(OCC(=O)N3CCCC3)ccc1O2`, the AC50 is > 42 µM (inactive).

Turning to `O=C(/C=C/c1cccc([N+](=O)[O-])c1)NCCSCc1ccc(Cl)cc1Cl`, the AC50 was > 42 µM (inactive).

For `COc1ccc(OC)c(NC(=O)CNC(=O)Cn2ccc3ccccc3c2=O)c1`, the AC50 is > 42 µM (inactive).

Turning to `Cc1c(C(=O)N2CCCC2)c(S(=O)(=O)Nc2cccc(Br)c2)c(C)n1C`, the AC50 was > 42 µM (inactive).

Consider `CCCCC(=O)Nc1nnc(/C=C/c2ccc(OC)cc2)s1`, for which the AC50 is > 42 µM (inactive).

`Nc1cc(=O)[nH]c(=O)n1CCc1ccccc1`: the AC50 was > 42 µM (inactive).

As for `COc1cc(-c2nnc(SCC#CCO)o2)cc(OC)c1OC`, the AC50 is > 42 µM (inactive).

Turning to `CC(NC(=O)c1cnc2n(c1=O)CCS2)c1ccccc1` (centres undefined), the AC50 was > 42 µM (inactive).

As for `CC(C(=O)NCCN1CCOCC1)(c1ccccc1)c1ccccc1`, the AC50 is > 42 µM (inactive).

Regarding `CCOc1ccc(NC(=O)Nc2ccc3nsnc3c2)cc1`, the AC50 was > 42 µM (inactive).

Turning to `CCn1cc(C(=O)N(C)c2ccc(OC)cc2OC)c2cc(OC)c(OC)cc2c1=O`, the AC50 was > 42 µM (inactive).

Consider `O=C(NC(=S)Nc1ccccc1N1CCCC1)c1ccc([N+](=O)[O-])cc1`, for which the AC50 was > 42 µM (inactive).

Consider `CCc1cc2c(=O)c(-c3nc4ccccc4[nH]3)coc2c(CN2CCCCC2)c1O`, for which the AC50 is > 42 µM (inactive).

For the compound `COc1ccc(Cl)cc1N(C(=O)c1ccco1)C(C(=O)NC1CCCC1)c1ccncc1` (centres undefined), the AC50 was > 42 µM (inactive).

Regarding `COC(=O)c1cc(Cl)c(NC(=O)C(C)C)cc1OC`, the AC50 is > 42 µM (inactive).

Take `CC(CN1CCCCCC1)C(=O)NN` (centres undefined): the AC50 was > 42 µM (inactive).

Turning to `COc1ccc2c(c1)[C@H]1[C@H](CO2)[C@H](c2ccccc2)[C@]2(C)C(=O)Nc3cc(C)ccc3C(=O)N12`, the AC50 is 5.3 µM.

As to `CC(=O)C1(c2ccccc2)CCNCC1`, the AC50 was > 21 µM (inactive).

As for `CN(C)C(=O)CCN1CCOCC1`, the AC50 is > 42 µM (inactive).

On to `CCC(=O)Nc1nc(CC(=O)Nc2ccccc2OC)cs1`, for which the AC50 is > 42 µM (inactive).

`COc1ccc(C2CC(c3cccs3)=NN2C(=O)c2ccccc2)cc1OC` (centres undefined): the AC50 is > 42 µM (inactive).

In the case of `CCn1c(SCC(=O)Nc2nc(-c3ccccc3)cs2)nnc1-c1ccccc1`, the AC50 was > 42 µM (inactive).

Take `Cc1ccc(C(C[N+](=O)[O-])c2c(C)[nH]n(-c3ccccc3)c2=O)cc1` (centres undefined): the AC50 was 6.06 µM.

Consider `CCOc1ccc(C(=O)Nc2ccc(N3CCN(C)CC3)cc2)cc1[N+](=O)[O-]`, for which the AC50 is > 42 µM (inactive).

In the case of `CCC1CCCCN1C(=O)CSc1nnc(CNC(=O)c2ccco2)o1` (centres undefined), the AC50 was > 42 µM (inactive).

Consider `Cn1cccc1CC(=O)N/N=C/c1cccc([N+](=O)[O-])c1`, for which the AC50 was > 42 µM (inactive).

For `CCCCNC(=O)c1ccccc1NC(=O)C1=C(C)OCCS1`, the AC50 was > 42 µM (inactive).

`Cc1ccc2nc3c(cc(C(=O)NCCN4CCOCC4)c(=N)n3CCCN3CCOCC3)c(=O)n2c1`: the AC50 was > 42 µM (inactive).

Take `CCN(CC)S(=O)(=O)c1ccc(NC(=O)C(C)N(c2ccccc2)S(C)(=O)=O)cc1` (centres undefined): the AC50 was > 42 µM (inactive).

Turning to `COc1ccc(N2CCN(C(=O)CNC(=O)Cc3ccc(Cl)cc3)CC2)cc1`, the AC50 was > 42 µM (inactive).

`N#C/C(=C\c1cc([N+](=O)[O-])c(N2CCOCC2)cc1N1CCOCC1)c1nc2ccccc2[nH]1`: the AC50 was > 42 µM (inactive).

Turning to `C=C(C)Cn1c(SCC(=O)N/N=C/c2ccccc2OCC(=O)O)nnc1-c1ccc(Br)cc1`, the AC50 was > 42 µM (inactive).

On to `Cc1ccc(NC(=O)/C=N/OCC(=O)NCc2ccccc2Cl)cc1`, for which the AC50 is > 42 µM (inactive).

Consider `CC(C)C(=O)NNc1ccc(C(F)(F)F)cn1`, for which the AC50 is > 42 µM (inactive).

With `O=C(c1cc(Cl)c(=O)n(Cc2ccc(Cl)cc2)c1)N1CCOCC1`, the AC50 was > 42 µM (inactive).

As to `O=C(CCCC(=O)N/N=C/c1ccccc1C(=O)O)N/N=C/c1ccccc1C(=O)O`, the AC50 is > 42 µM (inactive).

On to `COC(=O)c1ccncc1C(=O)Nc1ccc(Oc2ncc(C(F)(F)F)cc2Cl)cc1`, for which the AC50 is > 42 µM (inactive).

As for `COC(=O)c1ccc(/C=N/NC(=O)C(=O)NCC2CCCO2)cc1` (centres undefined), the AC50 is > 42 µM (inactive).

As for `Cn1c(=O)c2c(nc(N/N=C/c3ccc(OC(=O)c4ccco4)cc3)n2Cc2ccccc2Cl)n(C)c1=O`, the AC50 was > 42 µM (inactive).

Regarding `O=C(O)CCC(NC(=O)c1ccc(Cl)cc1)C(=O)O` (centres undefined), the AC50 was > 42 µM (inactive).

As to `Cc1nnsc1C(=O)N1CCC(CO)(Cc2ccccc2Cl)CC1`, the AC50 is > 42 µM (inactive).

With `CCCc1cc(=O)oc2c3c(c4c(c12)OC(C)(C)C=C4)OC(C)C(C)C3O` (centres undefined), the AC50 was > 42 µM (inactive).

Turning to `CCCCNS(=O)(=O)c1ccc2c(c1)oc(=O)n2CC(=O)OCC`, the AC50 was > 42 µM (inactive).

In the case of `Cc1cc(C(F)F)n2ncc(C(=O)NCCc3ccc(Cl)cc3)c2n1`, the AC50 was > 42 µM (inactive).

Regarding `Cc1ccc(/C=C2\SC(N3CCCC3)=NC2=O)cc1`, the AC50 is > 42 µM (inactive).

Consider `Cc1c(C2(O)CCCCC2)[nH]c2ccc(C#N)cc12`, for which the half-maximal activity concentration (AC50) was 41.9 µM.

On to `O=C(NC1CCCCC1)c1ccc2snnc2c1`, for which the AC50 was > 42 µM (inactive).

Turning to `CCOC(=O)C1C(c2ccc(C)o2)NC(=O)NC1(O)C(F)(F)F` (centres undefined), the AC50 is > 42 µM (inactive).

For `COc1ccc(N2C(=O)CCC(C(=O)NCc3cccnc3)C2c2ccc(OC)c(OC)c2)cc1` (centres undefined), the AC50 is > 42 µM (inactive).

As for `CC(=O)Oc1cccc(N2C(=O)c3ccc(C(=O)Nc4c[nH]c(=O)[nH]c4=O)cc3C2=O)c1`, the AC50 was > 42 µM (inactive).

For the compound `O=C(NCCCn1ccnc1)c1ccc(Cl)cc1`, the AC50 was > 42 µM (inactive).

In the case of `Cc1ccc(S(=O)(=O)N[C@@H](Cc2ccccc2)C(=O)CCl)cc1`, the AC50 is 1.47 µM.

As for `Cc1cc(C)cc(C(=O)N2CCC3(CC2)NCCc2[nH]cnc23)c1`, the AC50 was > 42 µM (inactive).

Take `Oc1ccccc1-c1cc(C(F)(F)C(F)F)[nH]n1`: the AC50 was > 42 µM (inactive).

As to `O=C1C2CCCCN2C(=O)N1CCCCN1CCN(c2ccccc2Oc2ccccc2)CC1` (centres undefined), the AC50 is > 42 µM (inactive).

Turning to `Cc1ccc(-n2nnnc2SCC#N)cc1`, the AC50 is > 42 µM (inactive).

As for `O=C(O)CCSc1ccc([N+](=O)[O-])cc1[N+](=O)[O-]`, the AC50 is 8.27 µM.

For the compound `Nc1nnc(CC(=O)N2CCCCC2)s1`, the AC50 is > 42 µM (inactive).

Regarding `O=C(CP(=O)(c1ccccc1)c1ccccc1)N1CCOCC1`, the AC50 is > 42 µM (inactive).

As to `Cc1ccc(S(=O)(=O)N2c3ccc(S(N)(=O)=O)cc3CC2C)cc1` (centres undefined), the AC50 was > 42 µM (inactive).

Turning to `CCOc1ccc(NC(=O)CSc2nnc(Cc3csc(C)n3)o2)cc1`, the AC50 was > 42 µM (inactive).

As to `O=C(/C=C/c1ccc(F)cc1)NCC1(c2ccccc2)CCOCC1`, the AC50 is > 42 µM (inactive).

For `CC(C)Oc1ccc(CCC(=O)NNC(=O)c2ccccc2C(=O)O)cc1`, the AC50 was > 42 µM (inactive).

For orientation: AC50 means the concentration giving half of the maximal activity seen.
